Source: US7011814B2, “Systems, methods and devices for in vivo monitoring of a localized response via a radiolabeled analyte in a subject” (Sicel Technologies, Inc., priority 2001, dated 2006)

Key:
[1] = cited from earlier work
[2] = in vivo monitoring of radiolabeled analyte uptake in tissue with subcutaneous fiber optic beta radiation probes
Method: The labeled glucose can be injected into the tail vein of test animals (such as rats) in a single bolus.
FIG. 11A illustrates a response profile graph (an integrated counts (above threshold) over time profile) taken over a monitored time period of about 85 minutes (study #2). The counts were taken on a thirty seconds/sample count time frame. In this experiment, a fiber optic probe was positioned subcutaneously in “normal” or non-cancerous tissue in the back of a Fisher 344 rat. A dose of 50 μCi of ^14C-2DG was injected in the tail vein. The data was monitored for about 85 minutes. […] The initial portion of the graph has values that represent “baseline” or dark current.
FIGS. 11B-11C illustrate graphs of data obtained using two probes, each placed subcutaneously in normal tissue of a 190 gram female Fisher 344 rat, one placed in the flank/inguinal and the other in the scapula (study #4). […] In this experiment, a bolus of 200 μCi of ^14C 2-DG was administered via intra-peritoneal (IP) injection. The data was monitored for about 96 minutes.

In the case of `O=c1[nH]cc(F)c(=O)[nH]1` [5-FU, 5-Fluorouracil], the “lesions in which enhanced trapping was noted” value ([1]; PET with O-15 labeled water and 5-[F-18]FU) is given as 70%.
In the case of C-14 labeled 2-deoxyglucose [^14C-2DG], the “time from injection at which counts reached a plateau” value ([2]; 50 μCi injected in tail vein, probe subcutaneous in normal tissue in back of Fisher 344 rat, study #2, FIG. 11A) is reported as “about 10 minutes”, the “concentration in scapula region compared to flank region” value ([2]; 200 μCi bolus intra-peritoneal, two probes subcutaneous in normal tissue, 190 gram female Fisher 344 rat, monitored about 96 minutes, study #4, FIG. 11B) is reported as “higher concentrations were obtained in the scapula region compared to the flank region” and the “time range in which peak or maxima point of concentration is reached (observed points)” value ([2]; 200 μCi intra-peritoneal, flank/inguinal normal tissue probe, study #4, FIG. 11C) is reported as 20 to 50 min.
For `O=c1[nH]cc([18F])c(=O)[nH]1` [5-[F-18]FU], the “liver parenchyma uptake at the end of the acquisition time, relative to the maximum” value ([1]; PET, 120-minute acquisition time) is given as 25%, the “uptake in the metastases” value ([1]; PET, during the 120-minute acquisition time) is given as “low and relatively constant” and the “mean uptake in metastases relative to liver uptake at the same time interval” value ([1]; PET, liver metastases) is given as “one-third”. For the same compound, the “time of highest uptake in normal liver parenchyma after onset of the infusion of the tracer” value ([1]; PET, normal liver parenchyma) was “about 30 minutes”.
